Laboratory results: patent publication US20080210174A1, “Increasing the Protein Concentration of Animal Organisms” (BASF AKTIENGESELLSCHAFT, priority 2004, published 2008)

How the values were obtained:
[1] = tested on: malate enzyme; details: malate enzyme from Mucor circinelloides; cited from earlier work
[2] = tested on: conversion of carbohydrates to fatty acids; details: rats on a low-fat, carbohydrate-rich diet; cited from earlier work
[3] = tested on: ATP:citrate lyase; details: ATP:citrate lyase from Mucor circinelloides; cited from earlier work
[4] = molecular target: T1, human cytosol malate enzyme (Homo sapiens, UniProt P48163); details: cited from earlier work
T1 sequence (P48163 1-572): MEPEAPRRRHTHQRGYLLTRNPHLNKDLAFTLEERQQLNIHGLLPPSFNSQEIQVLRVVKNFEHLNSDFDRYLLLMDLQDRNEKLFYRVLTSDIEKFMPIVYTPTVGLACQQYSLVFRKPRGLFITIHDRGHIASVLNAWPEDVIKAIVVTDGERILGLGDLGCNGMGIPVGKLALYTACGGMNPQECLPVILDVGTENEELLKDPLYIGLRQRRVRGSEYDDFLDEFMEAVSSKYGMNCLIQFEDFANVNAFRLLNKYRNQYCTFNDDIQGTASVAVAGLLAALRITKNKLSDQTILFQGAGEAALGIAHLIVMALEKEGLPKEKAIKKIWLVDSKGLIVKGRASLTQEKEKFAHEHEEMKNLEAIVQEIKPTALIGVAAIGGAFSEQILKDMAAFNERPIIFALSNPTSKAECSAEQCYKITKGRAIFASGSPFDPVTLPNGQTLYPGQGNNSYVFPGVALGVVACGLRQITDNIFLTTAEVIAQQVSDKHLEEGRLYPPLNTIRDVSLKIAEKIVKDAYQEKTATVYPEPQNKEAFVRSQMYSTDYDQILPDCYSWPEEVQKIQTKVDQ

[5] = tested on: Mucor circinelloides; details: fungus Mucor circinelloides; cited from earlier work
[6] = tested on: mice (type CD-1M (ICR) BR); assay: Feeding experiment in mice: whole body crude protein, crude fat, P/F quotient, feed intake, weight gain; format: in vivo; details: 21 days; for Body fat / Body protein / P/F quotient: mice
Protocol: 1. Determination of Whole Body Crude Protein • 1) Method for determining the content of crude protein in mice from the nitrogen content, modified according to Kjeldahl (Kjeldahl, J.: Z. anal. Chem. 22, 366-382. 1883). • 2) Principle • The experimental animals were slaughtered and after removing the gastrointestinal tract, the weight of the animals was determined by weighing. The experimental animals were then shock-frozen in liquid nitrogen and homogenized. The resultant samples were subjected to wet digestion. The acidic digest was made alkaline with sodium hydroxide solution. The ammonia released was removed by distillation and collected in a defined amount of sulfuric acid, the excess of which was titrated with sodium hydroxide solution. • 3) Reagents • 3.1) Potassium sulfate, analytical grade • 3.2) Catalyst: copper(II) oxide, CuO, analytical grade, or crystalline copper sulfate, CuSO4.5H2O, analytical grade, or mercury, or mercury oxide, HgO, analytical grade. • 3.3) Sulfuric acid; analytical grade, D 1.84 • 3.4) Pumice stone, granulated, washed with hydrochloric acid and ignited • 3.5) Zinc, analytical grade, granulated • 3.6) Sulfuric acid, 0.1 N; • 3.7) Sulfuric acid, 0.5 N • 3.8) Methyl red indicator: 300 mg of methyl red are dissolved in 100 ml of ethanol, from 94 to 96% strength (VN). • 3.9) Sodium hydroxide solution, analytical grade, 40% strength (WN) • 3.10) Sodium sulfide solution, analytical grade, saturated • 3.11) Sodium thiosulfate solution, 8% strength (WN), Na2S2O3.5H2O, analytical grade • 3.12) Sodium hydroxide solution, 0.1 N; • 3.13) Sodium hydroxide solution, 0.25 N • 4) Apparatus • Digestion apparatus and distillation apparatus according to Kjeldahl (see above); • 5) Digestion • 1 g of the sample was weighed out accurately to 1 mg and placed in the flask of the digestion apparatus. 10 g of potassium sulfate […], a suitable amount of the catalyst (3.2) (from 0.3 to 0.4 g of copper oxide or from 0.9 to 1.2 g of copper sulfate or one drop of mercury or from 0.6 to 0.7 g of mercury oxide), 25 ml of sulfuric acid (3.3) and a few grains of pumice (3.4) were added and the flask contents were mixed. The flask was first heated moderately, then, with shaking from time to time, heated up to carbonization of the substance and disappearance of the foam, and finally intensively up to the uniform boiling of the liquid. Superheating of the flask walls and deposition of organic parts onto the flask walls was avoided. As soon as the solution was clear and colorless (light green when a copper-containing catalyst is used), this was kept boiling for a further 1 hour; thereafter it was allowed to cool. • 6) Distillation • With continuous swirling, from 250 to 356 ml of water were added with care, in which case the sulfates should dissolve completely. The mixture was allowed to cool; then some zinc granules (3.5) were added. Between 10 ml and 25 ml of sulfuric acid (3.6) or (3.7), depending on the expected nitrogen content, and a few drops of methyl red indicator (3.8) were added to the distillation apparatus collection flask. The flask was connected to the condenser of the distillation apparatus and its outermost end was lowered at least 1 cm deep into the liquid of the collection flask. 100 ml of sodium hydroxide solution (3.9) were slowly charged via the stopcock funnel into the distillation flask. When a mercury catalyst is used, in addition, 10 ml of sodium sulfide solution (3.10) or 25 ml of sodium thiosulfate solution (3.11) were added to the distillation flask. The flask is heated in such a manner that, in 30 min, about 150 ml of the liquid had distilled off. After the expiry of this time, the neutral reaction of the overhead distillate was controlled using litmus paper. If the reaction was alkaline, the distillation was continued. […] During the distillation operation, the contents of the collection flask were swirled from time to time and its color was observed. […]

[7] = tested on: malate dehydrogenase; details: malate dehydrogenase from Mucor circinelloides; cited from earlier work
[8] = molecular target: human mitochondrial malate enzyme (Homo sapiens, UniProt P23368); details: cited from earlier work
Chain of human mitochondrial malate enzyme (P23368 19-584): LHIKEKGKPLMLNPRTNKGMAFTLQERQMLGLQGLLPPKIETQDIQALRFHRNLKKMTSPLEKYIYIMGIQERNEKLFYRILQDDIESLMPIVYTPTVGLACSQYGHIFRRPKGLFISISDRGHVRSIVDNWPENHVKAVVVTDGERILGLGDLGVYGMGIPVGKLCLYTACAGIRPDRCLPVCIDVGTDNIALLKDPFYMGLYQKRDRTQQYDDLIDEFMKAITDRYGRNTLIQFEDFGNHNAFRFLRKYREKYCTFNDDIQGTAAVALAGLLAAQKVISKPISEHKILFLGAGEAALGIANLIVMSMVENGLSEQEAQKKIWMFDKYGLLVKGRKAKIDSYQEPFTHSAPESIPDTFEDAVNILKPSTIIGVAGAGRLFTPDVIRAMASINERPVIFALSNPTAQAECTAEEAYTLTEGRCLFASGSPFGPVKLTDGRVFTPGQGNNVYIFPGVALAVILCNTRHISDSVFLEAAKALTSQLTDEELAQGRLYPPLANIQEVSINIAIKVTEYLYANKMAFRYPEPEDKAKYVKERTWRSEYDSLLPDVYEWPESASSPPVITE

[9] = animals fed with tartronic acid (0.25% and 0.75% of feed) vs control

SMILES: O=C(O)C(O)C(=O)O [Tartronic acid, tartronic acid]
- inhibitory activity on enzyme [1]: direct inhibitory activity
- effect on conversion of carbohydrates to fatty acids [2]: inhibits the conversion of carbohydrates to fatty acids
- inhibitory activity on enzyme [3]: direct inhibitory activity
- inhibitory activity on enzyme [4]: direct inhibitory activity
- in vivo inhibitory activity, effect on lipid metabolism [5]: not sufficient to have a detectable effect on lipid metabolism
- Body fat ([6]; 0.25% by weight of the feed): 20.25 % by weight of body weight
- Body protein ([6]; 0.25% by weight of the feed): 65.93 % by weight of body weight
- P/F quotient ([6]; 0.25% by weight of the feed): 3.53
- Body fat ([6]; 0.75% by weight of the feed): 20.65 % by weight of body weight
- Body protein ([6]; 0.75% by weight of the feed): 66.04 % by weight of body weight
- P/F quotient ([6]; 0.75% by weight of the feed): 3.28
- P/F quotient, change [6, 9]: increase in the P/F quotient
- PPTW (percentage protein of total weight), change [6, 9]: increase in the PPTW
- inhibitory activity on enzyme [7]: direct inhibitory activity
- inhibitory activity on enzyme [8]: direct inhibitory activity
